# According to patent publication US20100168050A1, “COMPOUNDS HAVING ANTIANGIOGENIC ACTIVITY” (MEDESTEA INTERNAZIONALE S.P.A, priority 2004, published 2010):
# Test system: HUVEC
# Test: HUVEC apoptosis/necrosis, annexin V and propidium iodide staining
# Type: cell-based, human
# Conditions: ATP 3 mM
# From the text: It is possible that the inhibition of the ATP-dependent pathway can induce the shift to another metabolic activity, as the glycolysis. […] The block of the HUVEC proliferation is further evidenced by the absence of cell apoptosis due to the treatment of the cells with the tested compounds, as reported in the FIG. 9 (the results are representative of 5 experiments). Only the treatment with ATP was able to induce about 4.5% PI positive, e.g. necrotic cells.
# In the second series of experiments, we studied the differences in the apoptosis induction on human promyelocytic leukemia HL60 cells by ATP and by the inhibitors of the P2X7 receptors. Apoptotic cells and necrotic cells were analyzed by staining the cells with annexin V and propidium iodide (PI) (BD Pharmingen apoptosis kit, San Diego, Calif.). Briefly, an aliquot of 10^5 cells was incubated with annexin V-fluorescein isothiocyanate (FITC) and PI for 15 minutes at room temperature in the dark. The cells were immediately analyzed by FACScalibur (Becton Dickinson, Heidelberg, Germany). The emission/excitation wavelengths were 530/488 nm for annexin V FITC (FL1) and 640 nm/488 nm for PI (FL2). The necrotic cells were annexin V- and PI-positive, whereas apoptotic cells were annexin V-positive and PI-negative. The percentage of cells stained in each quadrant was quantified using the cellQuest software (BD Bioscience, San Josew, Calif.). […]
structure (smiles),measurement,value
Nc1ncnc2c1ncn2[C@@H]1O[C@H](COP(=O)(O)OP(=O)(O)OP(=O)(O)O)[C@@H](O)[C@H]1O [ATP],"PI positive, e.g. necrotic cells",about 4.5%
